In US11696913B2, “Prolonged ectoparasite-controlling agent for animal” (MITSUI CHEMICALS AGRO, INC., priority 2017, dated 2023):

Legend:
Ixodes ricinus = experiment: In vitro contact test with adult hard ticks (Ixodes ricinus); conditions: read-out: acaricidal activity; for pest or weed control at 0.2 µg/cm2, 0.2 µg/cm2: dose 0.2 μg/cm^2, 48 h; for pest or weed control at 1 µg/cm2, 1 µg/cm2: dose 1 μg/cm^2, 48 h; for pest or weed control at 5 µg/cm2, 5 µg/cm2: dose 5 μg/cm^2, 48 h
In short: (§1)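 Acaricidal activity = % ticks dead or moribund after 48 h contact with acetone-deposited compound on vial walls (e.g., 900 ppm solution → 5 μg/cm^2). Ambient conditions for R. sanguineus, 21° C./85% rel. hum. for other species; heat challenge at 45-50° C. separated climbers from moribund ticks.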

Dermacentor variabilis = experiment: In vitro contact test with adult hard ticks (Dermacentor variabilis); conditions: read-out: acaricidal activity; for pest or weed control at 0.04 µg/cm2, 0.04 µg/cm2: dose 0.04 μg/cm^2, 48 h; for pest or weed control at 0.2 µg/cm2, 0.2 µg/cm2: dose 0.2 μg/cm^2, 48 h; for pest or weed control at 1 µg/cm2, 1 µg/cm2: dose 1 μg/cm^2, 48 h
In short: as §1

Plutella xylostella = experiment: Insecticidal testing against diamondback moth; assay type: in vivo; conditions: foliar, 144 h, concentration 100 ppm, cabbage leaf dip, third-stage larvae, after 6 days, read-out: pesticidal rate
From the text: Insecticidal Testing Against Diamondback Moth (Plutella xylostella)

Spodoptera litura = experiment: Insecticidal testing against common cutworm; assay type: in vivo; conditions: foliar, 144 h, concentration 100 ppm, cabbage leaf dip, second-stage larvae, after 6 days, read-out: pesticidal rate
From the text: Insecticidal Testing Against Common Cutworm (Spodoptera litura)

Ctenocephalides felis [1] = experiment: In vitro contact test with fleas; conditions: read-out: insecticidal activity; for pest or weed control at 0.04 µg/cm2, 0.04 µg/cm2: dose 0.04 μg/cm^2, dead or moribund fleas after 48 h; for pest or weed control at 0.2 µg/cm2, 0.2 µg/cm2: dose 0.2 μg/cm^2, dead or moribund fleas after 48 h; for pest or weed control at 1 µg/cm2, 1 µg/cm2: dose 1 μg/cm^2, dead or moribund fleas after 48 h
In short: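 Activity is the percentage of fleas dead or moribund at 48 h, judged by immobility or uncoordinated movement after tapping. Tubes were coated by evaporating acetone solutions (900 ppm gives 5 μg/cm^2), then held 5-10 adult fleas of both sexes at room temperature and ambient humidity.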

Rhipicephalus sanguineus = experiment: In vitro contact test with adult hard ticks (Rhipicephalus sanguineus); conditions: read-out: acaricidal activity; for pest or weed control at 0.04 µg/cm2, 0.04 µg/cm2: dose 0.04 μg/cm^2, 48 h; for pest or weed control at 0.2 µg/cm2, 0.2 µg/cm2: dose 0.2 μg/cm^2, 48 h; for pest or weed control at 1 µg/cm2, 1 µg/cm2: dose 1 μg/cm^2, 48 h
In short: as §1

Laodelphax striatellus = experiment: Insecticidal testing against small brown planthopper; assay type: in vivo; conditions: 144 h, concentration 100 ppm, sprayed rice seedlings, after 6 days, read-out: pesticidal rate
In short: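 Acetone solution of compound at a set concentration sprayed onto rice seedlings, air-dried, then exposed to 10 planthoppers (one group). Held at 25° C; survival rate recorded after 6 days.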

[2] = test system: Rhipicephalus (Boophilus) microplus; experiment: In vitro injection test with Rhipicephalus (Boophilus) microplus (BOOPMI Inj); conditions: 168 h, laid fertile eggs after 7 days, read-out: acaricidal activity; for pest or weed control at 32 ng: dose 0.032 μg/animal injected; for pest or weed control at 0.00016 mg: dose 0.16 μg/animal injected; for pest or weed control at 0.0008 mg: dose 0.8 μg/animal injected; for pest or weed control at 6.4 ng: dose 0.0064 μg/animal injected
In short: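 Five engorged adult females each get a 1 μl abdominal injection of compound dissolved and diluted in DMSO. Kept 7 days at 28° C./85% rel. hum.; percent activity rates egg laying and egg fertility (0% all fertile, 100% none laid or infertile).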

Ctenocephalides felis [3] = experiment: Ctenocephalides felis in-vitro feeding test with fleas (CTECFE oral); conditions: 48 hours, read-out: insecticidal feeding activity; for pest or weed control at 0.032 ppm: dose 0.032 ppm in citrated cattle blood; for pest or weed control at 0.16 ppm: dose 0.16 ppm in citrated cattle blood; for pest or weed control at 0.8 ppm: dose 0.8 ppm in citrated cattle blood; for pest or weed control at 4 ppm: dose 4 ppm in citrated cattle blood
In short: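 Scored as percent fleas killed (0–100%) 48 hours after feeding began. Compound, dissolved in DMSO and diluted into citrated cattle blood, was offered via a parafilm membrane to roughly 20 adult male and female C. felis at about 37° C.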

Amblyomma americanum = experiment: In vitro contact test with hard ticks (Amblyomma americanum nymphs); conditions: read-out: acaricidal activity; for pest or weed control at 0.04 µg/cm2, 0.04 µg/cm2: dose 0.04 μg/cm^2, 48 h; for pest or weed control at 0.2 µg/cm2, 0.2 µg/cm2: dose 0.2 μg/cm^2, 48 h; for pest or weed control at 1 µg/cm2, 1 µg/cm2: dose 1 μg/cm^2, 48 h
In short: as §1

| SMILES | pest or weed control at 0.2 µg/cm2, 0.2 µg/cm2 (Ixodes ricinus) [%] | pest or weed control at 1 µg/cm2, 1 µg/cm2 (Ixodes ricinus) [%] | pest or weed control at 5 µg/cm2, 5 µg/cm2 (Ixodes ricinus) [%] | pest or weed control at 0.2 µg/cm2, 0.2 µg/cm2 (Dermacentor variabilis) [%] | pest or weed control at 1 µg/cm2, 1 µg/cm2 (Dermacentor variabilis) [%] | pest or weed control at 100 ppm (Plutella xylostella) [%] | pest or weed control at 100 ppm (Spodoptera litura) [%] | pest or weed control at 0.04 µg/cm2, 0.04 µg/cm2 (Ctenocephalides felis [1]) [%] | pest or weed control at 0.2 µg/cm2, 0.2 µg/cm2 (Ctenocephalides felis [1]) [%] | pest or weed control at 1 µg/cm2, 1 µg/cm2 (Ctenocephalides felis [1]) [%] | pest or weed control at 0.2 µg/cm2, 0.2 µg/cm2 (Rhipicephalus sanguineus) [%] | pest or weed control at 1 µg/cm2, 1 µg/cm2 (Rhipicephalus sanguineus) [%] | pest or weed control at 100 ppm (Laodelphax striatellus) [%] | pest or weed control at 0.00016 mg [2] [%] | pest or weed control at 0.0008 mg [2] [%] | pest or weed control at 0.16 ppm (Ctenocephalides felis [3]) [%] | pest or weed control at 0.8 ppm (Ctenocephalides felis [3]) [%] | pest or weed control at 4 ppm (Ctenocephalides felis [3]) [%] | pest or weed control at 0.2 µg/cm2, 0.2 µg/cm2 (Amblyomma americanum) [%] | pest or weed control at 1 µg/cm2, 1 µg/cm2 (Amblyomma americanum) [%] | also measured |
| --- | --- | --- | --- | --- | --- | --- | --- | --- | --- | --- | --- | --- | --- | --- | --- | --- | --- | --- | --- | --- | --- |
| O=C(Nc1cccc(C(=O)Nc2c(I)cc(C(F)(C(F)(F)F)C(F)(F)F)cc2C(F)(F)F)c1F)c1ccc(F)c(F)c1 [Compound 86] | 90 | 90 | 90 | 90 | 90 | ≥ 70 | ≥ 70 | 95 | 95 | 95 | 90 | 90 | ≥ 70 | 100 | 100 | 95 | 95 | 95 | 90 | 90 | pest or weed control at 0.04 µg/cm2, 0.04 µg/cm2 (Dermacentor variabilis): 90%; pest or weed control at 0.04 µg/cm2, 0.04 µg/cm2 (Rhipicephalus sanguineus): 90%; pest or weed control at 32 ng [2]: 100%; pest or weed control at 0.032 ppm (Ctenocephalides felis [3]): 95%; pest or weed control at 0.04 µg/cm2, 0.04 µg/cm2 (Amblyomma americanum): 90% |
| CN(C(=O)c1ccc(F)cc1)c1cccc(C(=O)Nc2c(Br)cc(C(F)(C(F)(F)F)C(F)(F)F)cc2OC(F)F)c1F [Compound 89] | 90 | 90 | 90 | 90 | 90 | ≥ 70 | ≥ 70 | 95 | 95 | 95 | 90 | 90 | ≥ 70 | 100 | 100 | 95 | 95 | 95 |  | 90 | pest or weed control at 6.4 ng [2]: 100%; pest or weed control at 32 ng [2]: 100%; pest or weed control at 0.032 ppm (Ctenocephalides felis [3]): 95% |
| O=C(Nc1cccc(C(=O)Nc2c(Br)cc(C(F)(C(F)(F)F)C(F)(F)F)cc2OC(F)F)c1F)c1ccc(F)cc1 [Compound 91] | 90 | 90 | 90 | 90 | 90 | ≥ 70 | ≥ 70 | 95 | 95 | 95 | 90 | 90 | ≥ 70 | 100 | 100 | 95 | 95 | 95 | 90 | 90 | pest or weed control at 0.04 µg/cm2, 0.04 µg/cm2 (Dermacentor variabilis): 90%; pest or weed control at 0.04 µg/cm2, 0.04 µg/cm2 (Rhipicephalus sanguineus): 90%; pest or weed control at 32 ng [2]: 100%; pest or weed control at 0.032 ppm (Ctenocephalides felis [3]): 95%; pest or weed control at 0.04 µg/cm2, 0.04 µg/cm2 (Amblyomma americanum): 90% |
| O=C(Nc1cccc(C(=O)Nc2c(I)cc(C(F)(C(F)(F)F)C(F)(F)F)cc2OC(F)F)c1F)c1ccc(F)cc1 [Compound 92] | 90 | 90 | 90 | 90 |  | ≥ 70 | ≥ 70 | 95 | 95 | 95 | 90 | 90 | ≥ 70 | 100 | 100 | 95 | 95 | 95 | 90 | 90 | pest or weed control at 0.04 µg/cm2, 0.04 µg/cm2 (Dermacentor variabilis): 90%; pest or weed control at 0.04 µg/cm2, 0.04 µg/cm2 (Rhipicephalus sanguineus): 90%; pest or weed control at 6.4 ng [2]: 100%; pest or weed control at 32 ng [2]: 100%; pest or weed control at 0.032 ppm (Ctenocephalides felis [3]): 95% |
| O=C(Nc1cccc(C(=O)Nc2c(Br)cc(C(F)(C(F)(F)F)C(F)(F)C(F)(F)F)cc2OC(F)(F)F)c1F)c1ccc(F)cc1 (centres unmarked) [Compound 95] | 90 | 90 | 90 |  | 90 | ≥ 70 | ≥ 70 |  | 95 | 95 | 90 | 90 | ≥ 70 | 100 | 100 | 95 | 95 | 95 | 90 | 90 | pest or weed control at 0.04 µg/cm2, 0.04 µg/cm2 (Rhipicephalus sanguineus): 90%; pest or weed control at 32 ng [2]: 100%; pest or weed control at 0.04 µg/cm2, 0.04 µg/cm2 (Amblyomma americanum): 90% |
| O=C(Nc1cccc(C(=O)Nc2c(I)cc(C(F)(C(F)(F)F)C(F)(F)F)cc2OC(F)(F)F)c1F)c1ccc(F)c(F)c1 [Compound 97] | 90 | 90 | 90 | 90 | 90 | ≥ 70 | ≥ 70 | 95 | 95 | 95 | 90 | 90 | ≥ 70 | 100 | 100 | 95 | 95 | 95 | 90 | 90 | pest or weed control at 0.04 µg/cm2, 0.04 µg/cm2 (Dermacentor variabilis): 90% |
| O=C(Nc1cccc(C(=O)Nc2c(Br)cc(C(F)(C(F)(F)F)C(F)(F)F)cc2OC(F)(F)F)c1F)c1ccc(F)c(F)c1 [Compound 101] | 90 | 90 | 90 | 90 | 90 | ≥ 70 | ≥ 70 | 95 | 95 | 95 | 90 | 90 | ≥ 70 | 100 | 100 | 95 | 95 | 95 | 90 | 90 |  |
